Common to all, as to experiment: DTP human tumour cell line panel, 48 h
The subject of assay [1] is HOP-62 NSCLC.
Assay [2] relates to HOP-92 NSCLC.
In assay [3] the test system is KM12 colon.
Assay [4] deals with NCI/ADR-RES ovarian.
Assay [5] deals with OVCAR-8 ovarian.
Assay [6] relates to RPMI-8226 leukemia.
Assay [7] concerns RXF 393 renal.
Assay [8] has as its system SF-295 CNS.
Assay [9] relates to SR leukemia.
The test system of assay [10] is SW-620 colon.
Assay [11] relates to T-47D breast.

SMILES strings stand for the structures.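 All cell lines were grown in 96-well plates and treated with compound for 48 hours. TGI denotes the concentration required for complete inhibition of growth.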

The values below come from PubChem BioAssay (NCI).

Take `CC1CC(=O)N(N(C)C)C2(C#N)C(=O)N=C(N)C12C#N` (configuration not stated): the TGI (in general, the concentration giving total growth inhibition) was over 100 µM in assay [1]; over 100 µM in [2]; over 100 µM in [3]; over 100 µM in assay [4]; over 100 µM in assay [5]; 99.1 µM in assay [6]. Also, the TGI in [7], in assay [8], in assay [9], in [10] and in [11] was over 100 µM throughout.
Take `O=C1c2cc3c(cc2NC(c2ccccc2F)C1O)OCO3` (configuration not stated): the TGI in [1] is over 66.1 µM; in assay [2] it was over 100 µM; in assay [3], over 100 µM; in assay [4], over 64.7 µM; in assay [5] it was 71.9 µM; in [6] it was over 100 µM. For the same compound, the TGI in assay [7] was over 64.9 µM; in [8], 43.6 µM; in [9], over 37.9 µM; in assay [10], over 100 µM; in [11] it was over 100 µM.
On to `Cc1ccc(C(=O)N/N=C(\N=Nc2ccc([N+](=O)[O-])cc2)c2ccc(N(CCC#N)CCC#N)cc2C)cc1`, for which the TGI in assay [1], in assay [2], in assay [3], in assay [4], in assay [5] and in [6] was over 100 µM each time. Moreover, the TGI in assay [7] was 50.9 µM; in assay [8], over 100 µM; in assay [9] it was over 100 µM; in [10], over 100 µM; in [11] it was 83.4 µM.
`O=C1NC(N2CCCC(CO)C2)=N/C1=C\c1cccs1` (configuration not stated): the TGI in assay [1], in [2], in [3], in [4], in assay [5] and in assay [6] was over 100 µM each time. For the same compound, the TGI in [7], in [8], in assay [9], in assay [10] and in assay [11] was over 100 µM each time.
`CNC(=O)[C@H](Cc1ccccc1)NC(=O)N(CCC#N)CCN(C(=O)N[C@@H](Cc1ccccc1)C(=O)OC)c1ccccc1`: the TGI in [1], in [2], in assay [3], in [4], in assay [5] and in assay [6] was over 100 µM each time. In addition, the TGI in [7], in assay [8], in [9], in assay [10] and in assay [11] was over 100 µM in each case.
On to `CC(C)=CCC[C@@H](C)C1=C(O)C(N[C@H](C)c2ccccc2)=C(C)C(=O)C1=O`, for which the total growth inhibition concentration (TGI) was 20 µM in [1]; 35.6 µM in assay [2]; over 46 µM in assay [3]; 4.23 µM in assay [4]; over 24.1 µM in assay [5]; 22.2 µM in [6]. In addition, the TGI is 25 µM in assay [7]; 16.9 µM in [8]; over 100 µM in assay [9]; over 45.2 µM in [10]; 24.8 µM in [11].
As to `COC(=O)[C@@H]1c2c(oc3cc(CO)cc(O)c3c2=O)C=C[C@H]1O`, the TGI in assay [1] was determined as 40 µM; in assay [2], 22.4 µM; in assay [3], 14.8 µM; in [4], 47.5 µM; in assay [5], 21.7 µM; in assay [6] it was 9.72 µM. The TGI in [7] was 10.1 µM; in assay [8], 35.7 µM; in assay [9], over 100 µM; in assay [10], 10.4 µM; in [11], 9.4 µM.
In the case of `Nc1nc(N)c2nc(CN(C=O)c3ccc(C(=O)O)cc3)cnc2n1`, the TGI in assay [1] was over 100 µM; in assay [2] it was over 100 µM; in assay [3], over 100 µM; in [4], over 45.2 µM; in [5] it was over 100 µM; in assay [6] it was over 100 µM. Moreover, the TGI in [7], in [8], in [9], in assay [10] and in assay [11] was over 100 µM each time.
For `NC(CCC(=O)c1ccccn1)C(=O)O` (configuration not stated), the TGI in [1], in assay [2], in assay [3], in assay [4], in [5] and in assay [6] was over 100 µM in each case. The TGI in [7], in assay [8], in [9], in assay [10] and in [11] was over 100 µM each time.
For the compound `Cc1ccc(S(=O)(=O)N/N=C2\C=CC3(CC2)C(=O)N(I)c2ccccc23)cc1` (configuration not stated), the TGI in [1], in assay [2], in [3], in assay [4], in [5] and in assay [6] was over 100 µM each time. For the same compound, the TGI is 98 µM in [7]; over 100 µM in assay [8]; over 100 µM in assay [9]; over 100 µM in assay [10]; over 100 µM in assay [11].
With `CC(=O)O[C@H]1[C@@H](N2CCOCC2)C[C@H]2[C@@H]3CC=C4C[C@@H](N5CCCC5)CC[C@]4(C)[C@H]3CC[C@@]21C`, the TGI in [1], in assay [2], in assay [3], in assay [4], in assay [5] and in assay [6] was over 100 µM in each case. Besides, the TGI in assay [7] is over 100 µM; in assay [8] it was over 100 µM; in assay [9], 83.7 µM; in [10], over 100 µM; in [11], over 100 µM.
Take `Cc1c(C#N)c2nnn(-c3cccc(Cl)c3)c(=O)n2c1-c1ccccc1`: the TGI in assay [1] is 7.81 µM; in assay [2], over 100 µM; in [3] it was 14.9 µM; in assay [4], over 100 µM; in assay [5], over 100 µM; in assay [6], 2.61 µM. Further, the TGI in [7] was 5.84 µM; in assay [8], 4.98 µM; in assay [9], 2.69 µM; in assay [10], over 100 µM; in assay [11] it was 53.9 µM.
